Experimental data from ChEMBL document CHEMBL1255385, “Constitutive SoxS expression in a fluoroquinolone-resistant strain with a truncated SoxR protein and identification of a new member of the marA-soxS-rob regulon, mdtG” (2010).
≈ marks a conversion by molar mass, not a printed value.

Assays:
[1] = system: Escherichia coli; experiment: Antimicrobial activity against fluoroquinolone-susceptible Escherichia coli PS5 harboring GyrA S83L mutant gene by Etest; assay type: functional
[2] = system: Escherichia coli; experiment: Antimicrobial activity against fluoroquinolone-resistant Escherichia coli NorE5 harboring GyrA S83L mutant, ParC S80R mutant, truncated SoxR and constitutively active SoxS by Etest; assay type: functional

NCC[C@H](O)C(=O)N[C@@H]1C[C@H](N)[C@@H](O[C@H]2O[C@H](CN)[C@@H](O)[C@H](O)[C@H]2O)[C@H](O)[C@H]1O[C@H]1O[C@H](CO)[C@@H](O)[C@H](N)[C@H]1O [AMIKACIN]
MIC [1]: 12 µg/mL (≈ 20.5 µM) | MIC [2]: 12 µg/mL (≈ 20.5 µM)

CC[C@H]1OC(=O)[C@H](C)[C@@H](O[C@H]2C[C@@](C)(OC)[C@@H](O)[C@H](C)O2)[C@H](C)[C@@H](O[C@@H]2O[C@H](C)C[C@H](N(C)C)[C@H]2O)[C@](C)(O)C[C@@H](C)C(=O)[C@H](C)[C@@H](O)[C@]1(C)O [ERYTHROMYCIN]
MIC [1]: 64 µg/mL (≈ 87.2 µM) | MIC [2]: > 256 µg/mL

CC1(C)S[C@@H]2[C@H](NC(=O)[C@H](N)c3ccc(O)cc3)C(=O)N2[C@H]1C(=O)O [AMOXICILLIN]
MIC [1]: 48 µg/mL (≈ 131 µM) | MIC [2]: > 256 µg/mL

CCn1cc(C(=O)O)c(=O)c2ccc(C)nc21 [NALIDIXIC ACID]
MIC [1]: 1020 µg/mL (≈ 4410 µM) | MIC [2]: 2050 µg/mL (≈ 8820 µM)

COc1cc(Cc2cnc(N)nc2N)cc(OC)c1OC [TRIMETHOPRIM]
MIC [1]: 0.5 µg/mL (≈ 1.72 µM) | MIC [2]: 8 µg/mL (≈ 27.6 µM)

O=C(N[C@H](CO)[C@H](O)c1ccc([N+](=O)[O-])cc1)C(Cl)Cl [CHLORAMPHENICOL]
MIC [1]: 8 µg/mL (≈ 24.8 µM) | MIC [2]: 64 µg/mL (≈ 198 µM)

CCn1cc(C(=O)O)c(=O)c2cc(F)c(N3CCNCC3)cc21 [NORFLOXACIN]
MIC [1]: 0.5 µg/mL (≈ 1.57 µM) | MIC [2]: 32 µg/mL (≈ 100 µM)

CN(C)[C@@H]1C(O)=C(C(N)=O)C(=O)[C@@]2(O)C(O)=C3C(=O)c4c(O)cccc4[C@@](C)(O)[C@H]3C[C@@H]12 [TETRACYCLINE]
MIC [1]: 2 µg/mL (≈ 4.5 µM) | MIC [2]: 8 µg/mL (≈ 18 µM)
